Results as given in the supplement of paper PMC10307832.

Columns and labels:
Assay in all cases: relative viability (nuclei count vs DMSO), 5 days (fraction); higher = more cells survive
[1] = compound: C(C(=O)C(=O)O)Br [Bromopyruvate] + Cc1nc(NC(=O)N2CCC[C@H]2C(N)=O)sc1-c1ccnc(C(C)(C)C(F)(F)F)c1 [Alpelisib] (partner 2 µM)
Procedure, shortened: (§1)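 Relative viability equals treated-well nuclei counts divided by vehicle-well nuclei counts. Counts came from 4× images of lung cancer cell lines grown in 1536-well plates for 5 days after pin-tool dosing on the day after seeding. Dosing used one drug alone or a fixed anchor-drug dose plus five library-drug doses (not always all listed) in √10 steps, and values are medians of duplicate plates.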

[2] = compound: C(C(=O)C(=O)O)Br [Bromopyruvate] + O=C(CCCCCCC(=O)Nc1ccccc1)NO [Vorinostat] (partner 1 µM)
Procedure, shortened: as §1

[3] = compound: CC(O)(CS(=O)(=O)c1ccc(F)cc1)C(=O)Nc1ccc(C#N)c(C(F)(F)F)c1 [Bicalutamide] + C[C@]1(O)C[C@@H](c2nc(-c3ccc4ccc(-c5ccccc5)nc4c3)c3c(N)nccn32)C1 [Linsitinib] (partner 1 µM)
Procedure, shortened: as §1

Bicalutamide + Dasatinib = compound: CC(O)(CS(=O)(=O)c1ccc(F)cc1)C(=O)Nc1ccc(C#N)c(C(F)(F)F)c1 [Bicalutamide] + Cc1nc(Nc2ncc(C(=O)Nc3c(C)cccc3Cl)s2)cc(N2CCN(CCO)CC2)n1 [Dasatinib] (partner 0.075 µM)
Procedure, shortened: as §1

UMC-11 was tested. Which relative viability ([1]; first compound 1 µM) did it give?
The relative viability was 1.12.

And the relative viability ([1]; first compound 3.162 µM)?
Its relative viability is 1.01.

What about the relative viability ([1]; first compound 10 µM) of the same cell line?
Its relative viability is 0.983.

What about the relative viability ([1]; first compound 31.62 µM) of the same cell line?
Its relative viability is 0.997.

What about the relative viability ([1]; first compound 100 µM) of the same cell line?
The relative viability was 1.01.

And the relative viability ([2]; first compound 1 µM)?
Its relative viability is 0.479.

What about the relative viability ([2]; first compound 3.162 µM) of the same cell line?
Its relative viability is 0.357.

And the relative viability ([2]; first compound 10 µM)?
Its relative viability is 0.289.

What about the relative viability ([2]; first compound 31.62 µM) of the same cell line?
The relative viability was 0.274.

And the relative viability ([2]; first compound 100 µM)?
Its relative viability is 0.2.

And the relative viability ([3]; first compound 0.08 µM)?
The relative viability was 1.1.

What about the relative viability ([3]; first compound 0.253 µM) of the same cell line?
The relative viability was 0.662.

What about the relative viability ([3]; first compound 0.8 µM) of the same cell line?
Its relative viability is 1.08.

And the relative viability ([3]; first compound 2.53 µM)?
The relative viability was 0.955.

And the relative viability (Bicalutamide + Dasatinib; first compound 0.08 µM)?
Its relative viability is 0.523.

What about the relative viability (Bicalutamide + Dasatinib; first compound 0.253 µM) of the same cell line?
The relative viability was 0.399.

What about the relative viability (Bicalutamide + Dasatinib; first compound 0.8 µM) of the same cell line?
The relative viability was 0.576.

And the relative viability (Bicalutamide + Dasatinib; first compound 2.53 µM)?
The relative viability was 0.431.
